Data as given in patent publication US10030047B2 (Hoffmann-La Roche Inc., priority 2015, dated 2018).
Values after ≈ are worked out from the molar mass of the structure shown.

The molecules below were run on A. baumannii strain ATCC19606 (assay: Minimum inhibitory concentration (MIC) determination, microbroth dilution (CLSI)). Conditions: Acinetobacter baumannii; A. baumannii ATCC19606; CAMHB; read after 20 hours; >=80% growth inhibition; read-out: ATCC19606 MIC.
Type: cell-based
Outline: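 CLSI broth microdilution in cation-adjusted Mueller Hinton broth with twofold compound dilutions and ~5×10^5 CFU/ml inoculum, incubated at 35±2 °C. MIC read after 20 h as lowest concentration inhibiting ≥80% of growth, by eye and OD 600 nm.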
With `C[C@@H]1NCc2cccnc2Sc2c(Cl)cc(Cl)cc2CNC(=O)[C@H](Cc2c[nH]c3ccccc23)N(C)C(=O)[C@H](CCCCN)NC1=O` [Example 94, (11S,14S,17S)-14-(4-Amino-butyl)-23,25-dichloro-17-(1H-indol-3-ylmethyl)-11,16-dimethyl-2-thia-4,10,13,16,19-pentaaza-tricyclo[19.4.0.0*3,8*]pentacosa-1(25),3,5,7,21,23-hexaene-12,15,18-trione] the MIC was 1 µg/mL (≈ 1.44 µM). Molecule `CC(C)[C@@H]1NCc2cccnc2Sc2c(Cl)cc(Cl)cc2CNC(=O)[C@H](Cc2c[nH]c3ccccc23)N(C)C(=O)[C@H](CCCCN)NC1=O` [Example 95, (11S,14S,17S)-14-(4-Amino-butyl)-23,25-dichloro-17-(1H-indol-3-ylmethyl)-11-isopropyl-16-methyl-2-thia-4,10,13,16,19-pentaaza-tricyclo[19.4.0.0*3,8*]pentacosa-1(25),3,5,7,21,23-hexaene-12,15,18-trione] has an MIC of 8 µg/mL (≈ 11 µM). In the case of `CN1C(=O)[C@H](CCCCN)NC(=O)[C@H](CO)NCc2cccnc2Sc2c(Cl)cc(Cl)cc2CNC(=O)[C@@H]1Cc1c[nH]c2ccccc12` [Example 96, (11S,14S,17S)-14-(4-Amino-butyl)-23,25-dichloro-11-hydroxymethyl-17-(1H-indol-3-ylmethyl)-16-methyl-2-thia-4,10,13,16,19-pentaaza-tricyclo[19.4.0.0*3,8*]pentacosa-1(25),3,5,7,21,23-hexaene-12,15,18-trione], the MIC is reported as 4 µg/mL (≈ 5.61 µM). For `CN1C(=O)[C@H](CCCCN)NC(=O)[C@H](CCCN)NCc2nccnc2Sc2c(Cl)cc(C(F)(F)F)cc2CNC(=O)[C@@H]1Cc1c[nH]c2ccccc12` [Example 97, (11S,14S,17S)-14-(4-Amino-butyl)-11-(3-amino-propyl)-25-chloro-17-(1H-indol-3-ylmethyl)-16-methyl-23-trifluoromethyl-2-thia-4,7,10,13,16,19-hexaaza-tricyclo[19.4.0.0*3,8*]pentacosa-1(21),3,5,7,22,24-hexaene-12,15,18-trione], the MIC was 0.12 µg/mL (≈ 0.155 µM). Molecule `CN1C(=O)[C@H](CCCCN)NC(=O)[C@H](CCCN)NCc2nccnc2Sc2c(Cl)ccc(C(F)(F)F)c2CNC(=O)[C@@H]1Cc1c[nH]c2ccccc12` [Example 98, (11S,14S,17S)-14-(4-Amino-butyl)-11-(3-amino-propyl)-25-chloro-17-(1H-indol-3-ylmethyl)-16-methyl-22-trifluoromethyl-2-thia-4,7,10,13,16,19-hexaaza-tricyclo[19.4.0.0*3,8*]pentacosa-1(21),3,5,7,22,24-hexaene-12,15,18-trione] has an MIC of 0.12 µg/mL (≈ 0.155 µM). With `CN1C(=O)[C@H](CCCCN)NC(=O)[C@H](CCCN)NCc2cccnc2Sc2c(Cl)cc(-c3cccnc3)cc2CNC(=O)[C@@H]1Cc1c[nH]c2ccccc12` [Example 99, (11S,14S,17S)-14-(4-Amino-butyl)-11-(3-amino-propyl)-25-chloro-17-(1H-indol-3-ylmethyl)-16-methyl-23-pyridin-3-yl-2-thia-4,10,13,16,19-pentaaza-tricyclo[19.4.0.0*3,8*]pentacosa-1(25),3,5,7,21,23-hexaene-12,15,18-trione] the MIC was 4 µg/mL (≈ 5.11 µM). `CN1C(=O)[C@H](CCCCN)NC(=O)[C@H](CCCN)NCc2cccnc2Sc2c(Cl)cc(-c3ccncc3)cc2CNC(=O)[C@@H]1Cc1c[nH]c2ccccc12` [Example 100, (11S,14S,17S)-14-(4-Amino-butyl)-11-(3-amino-propyl)-25-chloro-17-(1H-indol-3-ylmethyl)-16-methyl-23-pyridin-4-yl-2-thia-4,10,13,16,19-pentaaza-tricyclo[19.4.0.0*3,8*]pentacosa-1(25),3,5,7,21,23-hexaene-12,15,18-trione] gave an MIC of 2 µg/mL (≈ 2.56 µM). `CC(C)C[C@@H]1NCc2cccnc2Sc2c(Cl)cc(Cl)cc2CNC(=O)[C@H](Cc2c[nH]c3ccccc23)N(C)C(=O)[C@H](CCCCN)NC1=O` [Example 101, (11S,14S,17S)-14-(4-Amino-butyl)-23,25-dichloro-17-(1H-indol-3-ylmethyl)-11-isobutyl-16-methyl-2-thia-4,10,13,16,19-pentaaza-tricyclo[19.4.0.0*3,8*]pentacosa-1(25),3,5,7,21,23-hexaene-12,15,18-trione] showed an MIC of 32 µg/mL (≈ 43.3 µM). With `COc1cc(-c2cc(Cl)c3c(c2)CNC(=O)[C@H](Cc2c[nH]c4ccccc24)N(C)C(=O)[C@H](CCCCN)NC(=O)[C@H](CCCN)NCc2cccnc2S3)ccn1` [Example 102, (11S,14S,17S)-14-(4-Amino-butyl)-11-(3-amino-propyl)-25-chloro-17-(1H-indol-3-ylmethyl)-23-(2-methoxy-pyridin-4-yl)-16-methyl-2-thia-4,10,13,16,19-pentaaza-tricyclo[19.4.0.0*3,8*]pentacosa-1(25),3,5,7,21,23-hexaene-12,15,18-trione] the MIC was 0.5 µg/mL (≈ 0.615 µM). `CN1C(=O)[C@H](CCCCN)NC(=O)[C@H](CCC(N)=O)NCc2cccnc2Sc2c(Cl)cc(Cl)cc2CNC(=O)[C@@H]1Cc1c[nH]c2ccccc12` [Example 103, 3-[(11S,14S,17S)-14-(4-Amino-butyl)-23,25-dichloro-17-(1H-indol-3-ylmethyl)-16-methyl-12,15,18-trioxo-2-thia-4,10,13,16,19-pentaaza-tricyclo[19.4.0.0*3,8*]pentacosa-1(25),3,5,7,21,23-hexaen-11-yl]-propionamide] showed an MIC of 0.25 µg/mL (≈ 0.332 µM). For `CN1C(=O)[C@H](CCCCN)NC(=O)[C@H](CCCN)NCc2ncccc2Sc2c(Cl)ccc(Cl)c2CNC(=O)[C@@H]1Cc1c[nH]c2ccccc12` [Example 104, (11S,14S,17S)-14-(4-Amino-butyl)-11-(3-amino-propyl)-22,25-dichloro-17-(1H-indol-3-ylmethyl)-16-methyl-2-thia-7,10,13,16,19-pentaaza-tricyclo[19.4.0.0*3,8*]pentacosa-1(21),3,5,7,22,24-hexaene-12,15,18-trione], the MIC was 2 µg/mL (≈ 2.7 µM). `Cc1cc(-c2cc(Cl)c3c(c2)CNC(=O)[C@H](Cc2c[nH]c4ccccc24)N(C)C(=O)[C@H](CCCCN)NC(=O)[C@H](CCCN)NCc2cccnc2S3)ccn1` [Example 105, (11S,14S,17S)-14-(4-Amino-butyl)-11-(3-amino-propyl)-25-chloro-17-(1H-indol-3-ylmethyl)-16-methyl-23-(2-methyl-pyridin-4-yl)-2-thia-4,10,13,16,19-pentaaza-tricyclo[19.4.0.0*3,8*]pentacosa-1(25),3,5,7,21,23-hexaene-12,15,18-trione] showed an MIC of 1 µg/mL (≈ 1.26 µM). `C[C@H](O)[C@@H]1NCc2cccnc2Sc2c(Cl)cc(Cl)cc2CNC(=O)[C@H](Cc2c[nH]c3ccccc23)N(C)C(=O)[C@H](CCCCN)NC1=O` [Example 106, (11S,14S,17S)-14-(4-Amino-butyl)-23,25-dichloro-11-((S)-1-hydroxy-ethyl)-17-(1H-indol-3-ylmethyl)-16-methyl-2-thia-4,10,13,16,19-pentaaza-tricyclo[19.4.0.0*3,8*]pentacosa-1(25),3,5,7,21,23-hexaene-12,15,18-trione] showed an MIC of 2 µg/mL (≈ 2.75 µM). With `CN1C(=O)[C@H](CCCCN)NC(=O)C(C)(C)NCc2cccnc2Sc2c(Cl)cc(Cl)cc2CNC(=O)[C@@H]1Cc1c[nH]c2ccccc12` [Example 107, (14S,17S)-14-(4-Amino-butyl)-23,25-dichloro-17-(1H-indol-3-ylmethyl)-11,11,16-trimethyl-2-thia-4,10,13,16,19-pentaaza-tricyclo[19.4.0.0*3,8*]pentacosa-1(25),3,5,7,21,23-hexaene-12,15,18-trione] the MIC was 8 µg/mL (≈ 11.3 µM).
